# In patent publication US5690956A, “Hair care perming agent” (priority 1995, dated 1997):
# Assays:
# [1] = Stability of TCEP (aqueous acidic media, air oxidation, temperature); type: physicochemical
# [2] = tested on: hair, especially the cuticle; assay: Damage to hair (cuticle); design: species or system human; conditions: vs sulfhydryl reducing agents in alkaline pH
# [3] = tested on: soluble proteins, such as antibodies; conditions: in the presence of 6M guanidine or 8M urea; cited from earlier work
# Water solubility of TCEP = type: physicochemical
# human hosts = assay: Human safety of the reducing agent
# disulfide bonds in hair [4] = assay: Reduction (cleavage) of disulfide bonds in hair protein; type: biochemical, human
# From the text: The extent of cleavage of disulfide bonds using thioglycollate depends on the concentration of the reducing agent and on the amount of mechanical stress applied to the hair shaft. In spite of the conditions used in performing a reduction of the disulfide bonds, in prior practice in a laboratory setting, no more than 65-70% of the protein cystine bonds in hair were disrupted. In the actual practice of hair perming, the reduction level is even lower, ranging between 19% and 43%. When using thioglycollate as a reducing agent, the optimal perming condition occurs using ambient temperatures and a 5% (w/v) solution of thioglycollate.
# 2) The reducing reactions are conducted under conditions of ambient or slightly elevated temperature in a mildly acidic buffer media ranging in a pH from 2.0-5.6 and with a TCEP concentration range of 5-10% w/v. The reaction occurs over a period of about 15 minutes.
# [5] = tested on: hair, especially the cuticle; conditions: elevated pH, usually pH 9-12; prior art; cited from earlier work
# disulfide bonds in hair [6] = conditions: laboratory setting, prior practice; cited from earlier work
SMILES,resistance to air oxidation ([1]; air),stability in aqueous acidic media ([1]; aqueous acidic media),stability when exposed to fluctuations in temperature ([1]; fluctuations in temperature),"damage to hair, especially the cuticle [2]",function as reducing agent on soluble proteins [3],solubility (Water solubility of TCEP),toxicity to human hosts / safety profile (human hosts),reactivity toward other functional groups found in hair (disulfide bonds in hair [4]),reduction of some of the most stable disulfide bonds in hair (disulfide bonds in hair [4]),"effectiveness in reducing disulfide bonds vs dithiothreitol, mercaptoethanol, or thioglycollic acid (disulfide bonds in hair [4]; acidic pH)","period over which the reducing reaction occurs (disulfide bonds in hair [4]; pH 2.0-5.6, TCEP 5-10% w/v, ambient or slightly elevated temperature)",cuticle damage [5],protein cystine bonds in hair disrupted (extent of reduction) (disulfide bonds in hair [6])
"Cl.O=C(O)CCP(CCC(=O)O)CCC(=O)O [TCEP, Tris-(2-carboxy-ethyl) phosphine hydrochloride]",substantially resistant to air oxidation,stable in aqueous acidic media,very stable,lower instance of damaged hair,function well,~310 mg/mL,not toxic to human hosts,essentially non-reactive,Selective and complete reduction,more effective than traditional sulfhydryl reducing agents,about 15 minutes,–,–
"O=C(O)CS [thioglycollate, thioglycollic acid]",–,–,–,–,–,–,–,–,–,–,–,severe cuticle damage,65-70%
